Values after ≈ are worked out from the molar mass of the structure shown. A value given as a limit tells only on which side of the number the result lay.

The conditions of this data set: buffer; pH 7.4; 200.0 µM.
Compound `O=C(NCCc1ccc(F)cc1)Nc1ccccc1` had a kinetic solubility of 6.1 µg/mL (≈ 23.6 µM).
In turn, `CCOC(=O)c1c(O)cc(C)[nH]c1=O` returned a kinetic solubility of over 29.6 µg/mL.
In turn, `Cc1cc(NC(=O)c2ccccc2)no1` returned a kinetic solubility of 28.8 µg/mL (≈ 142 µM).
The figure for `CC1(C)CC(c2nc(-c3ccc([N+](=O)[O-])cc3)cs2)CCO1` (stereo not drawn) is 19.3 µg/mL (≈ 60.6 µM); for `Cc1ccc(Cc2c(C)c(C#N)c3[nH]c4ccccc4n3c2=O)cc1` it is under 0.2 µg/mL.
`O=C(Nc1ncc([N+](=O)[O-])s1)C1COc2ccccc2O1` (stereo not drawn): the solubility (kinetic) is over 46.1 µg/mL.
In the case of `CCN(CC)C(=O)C(Oc1ccc(C)nc1[N+](=O)[O-])c1ccccc1` (stereo not drawn), the solubility (kinetic) amounted to 48.6 µg/mL (≈ 142 µM).
Turning to `O=C(CN1C(=O)C(=O)N(Cc2ccco2)C1=O)Nc1ccc(F)c(F)c1F`, the solubility (kinetic) was 52.4 µg/mL (≈ 137 µM).
The figure for `CC(=NCc1cccnc1)c1c(O)n(-c2ccc(Cl)cc2)c(=O)[nH]c1=O` is 2 µg/mL (≈ 5.39 µM).
The figure for `CCOC(=O)CC1COc2ccccc2N1C(=O)c1ccc(F)cc1` (stereo not drawn) is 47 µg/mL (≈ 137 µM); for `CN1C(=O)NC(c2ccccc2[N+](=O)[O-])C2=C1CCCC2=O` (stereo not drawn) it is over 45.2 µg/mL.
On to `CN(C)/C=C/C(=O)c1ccc(C(F)(F)F)cc1F`, for which the kinetic solubility amounted to 35 µg/mL (≈ 134 µM).
Regarding `CCOC(=O)CNC(=O)C1COc2ccccc2O1` (stereo not drawn), the solubility (kinetic) is over 39.8 µg/mL.
For the compound `CCOC(=O)C1(CC2CC2)CCN(Cc2ccc(C(=O)OC)cc2)CC1`, the solubility (kinetic) was found to be 42.8 µg/mL (≈ 119 µM).
For `COC(=O)Cc1ccc(NC(=S)NC2CC2)cc1`, the solubility (kinetic) was over 39.7 µg/mL.
For the compound `COC(=O)c1ccc(NC(=O)N(c2ccccc2)c2ccccc2)cc1`, the solubility (kinetic) was found to be 0.7 µg/mL (≈ 2.02 µM).
In turn, `Cc1cc(NC(=O)c2c(-c3c(F)cccc3Cl)noc2C)no1` yielded a kinetic solubility of over 50.4 µg/mL.
As for `O=C(OCc1cccc([N+](=O)[O-])c1)c1cc(=O)[nH]c2ccccc12`, the solubility (kinetic) is under 0.3 µg/mL.
The figure for `CCC1CCCCN1C(=S)NC(=O)c1cccc([N+](=O)[O-])c1` (stereo not drawn) is over 48.2 µg/mL.
For the compound `COc1ccc(S(=O)(=O)c2c[nH]c(=S)[nH]c2=O)cc1Cl`, the kinetic solubility was over 49.9 µg/mL.
`O=C(COC(=O)c1cccc(Cl)c1)Nc1cccc(S(=O)(=O)NC2=NCCC2)c1` yielded a solubility (kinetic) of 63.3 µg/mL (≈ 145 µM).
The figure for `COc1cccc(NC2=NCCCCC2)c1` is over 32.7 µg/mL.
In turn, `Cc1ccc(S(=O)(=O)N2CCOCC2)cc1NC(=O)COC(=O)COc1ccccc1[N+](=O)[O-]` showed a solubility (kinetic) of 72.2 µg/mL (≈ 146 µM).
The figure for `O=S(=O)(Nc1ccc(N2CCCCC2)cc1)c1ccc(F)cc1` is 9.5 µg/mL (≈ 28.4 µM); for `CN(C)C(CNc1ncccn1)c1ccccc1` (stereo not drawn) it is 32.6 µg/mL (≈ 135 µM); for `CCOC(=O)c1cc(C#N)c(C)nc1N(CC)CC` it is 16.4 µg/mL (≈ 62.8 µM).
The figure for `CCOc1ccccc1C1NC(=O)c2ccccc2O1` (stereo not drawn) is 35.2 µg/mL (≈ 131 µM).
The compound `Br.COc1ccc(-c2nc3n(c2C)CCC3)cc1` displayed a kinetic solubility of over 46.4 µg/mL.
The figure for `CN1CCN(S(=O)(=O)c2ccc(Cl)cc2)CC1` is 37.8 µg/mL (≈ 138 µM); for `O=C1c2ccccc2C2(c3ccc(F)cc3)NCCN12` (stereo not drawn) it is over 40.2 µg/mL; for `CCCCc1ccc(NC(=S)N2CCN(C)CC2)cc1` it is over 43.7 µg/mL.
The figure for `COc1cccc(/C=C2\SC(N3CCC(C)CC3)=NC2=O)c1OC` is 21.5 µg/mL (≈ 62.1 µM); for `CCOC(=O)c1cnc(SCC(=O)OC)nc1N` it is over 40.7 µg/mL; for `O=C(Nc1cc(C(=O)N2CCN(c3ccccc3)CC2)ccc1Cl)c1cccs1` it is 4.8 µg/mL (≈ 11.3 µM).
Compound `CC(C)(C)S(=O)(=O)c1cnc(-c2ccc(Cl)cc2)nc1N` returned a solubility (kinetic) of under 0.2 µg/mL.
In turn, `Cc1ccc(Cl)c2sc(NC(=O)C3=COCCO3)nc12` registered a solubility (kinetic) of 1.1 µg/mL (≈ 3.54 µM).
The figure for `Cc1ccnc(NC(=O)CCc2c[nH]c3ccccc23)c1` is over 41.9 µg/mL.
The figure for `CN(C)CCn1c(COc2ccccc2)nc2ccccc21.Cl.O` is over 60.7 µg/mL.
The compound `COc1ccccc1NC(=O)Cn1cc(C(=O)c2ccco2)c2ccccc21` registered a solubility (kinetic) of 1.2 µg/mL (≈ 3.21 µM).
The figure for `COc1cccc(-c2nc3ccc([N+](=O)[O-])cc3o2)c1` is under 0.3 µg/mL.
Take `COP(=O)(Cc1ccc(C#N)o1)OC`: the solubility (kinetic) was over 32.3 µg/mL.
With `CC1CCN(Cc2cc(=O)oc3ccc(C(C)C)cc23)CC1.Cl`, the kinetic solubility stood at 4 µg/mL.
The figure for `Nc1cc(S(=O)(=O)N2CCCCC2)ccc1Oc1ccccc1` is 10.8 µg/mL (≈ 32.5 µM); for `O=C(NC1CC1)[C@@H]1CSC2c3ccccc3C(=O)N21` (stereo partly drawn) it is over 41.2 µg/mL.
The figure for `CCOC(=O)c1cc(NC(=O)Nc2cc(C)ccn2)c(C)nc1C` is 0.3 µg/mL (≈ 0.914 µM).
The figure for `C#CC1CCCCC1NC(=O)Nc1cnccc1C(F)(F)F` (stereo not drawn) is 43.2 µg/mL (≈ 139 µM); for `O=C(COC(=O)c1ccc(Cl)nc1)Nc1ccc(Cl)cc1` it is 6.4 µg/mL (≈ 19.7 µM); for `O=c1[nH]c(N2CCCCC2)nc2ncn(Cc3ccccc3)c12` it is 33.3 µg/mL (≈ 108 µM).
`Cc1nn(C)c(C)c1NS(=O)(=O)c1ccc(Cl)s1` registered a solubility (kinetic) of over 45.9 µg/mL.
`O=C(Cc1ccc(Br)cc1)NCCCn1ccnc1` returned a kinetic solubility of over 48.3 µg/mL.
The figure for `COc1ccc(C(=O)c2sc(Nc3ccccc3)nc2N)cc1` is 2.2 µg/mL (≈ 6.76 µM); for `COc1ccc2c(CC(=O)NNC(=O)c3ccc(O)cc3)coc2c1` it is over 51.1 µg/mL.
The figure for `CN/C(=C\[N+](=O)[O-])NCCSCc1csc(CN(C)C)n1` is over 49.7 µg/mL; for `CCOC(=O)/C(O)=C(\C#N)c1nc2ccccc2[nH]1` it is over 38.6 µg/mL; for `CCNC(=S)Nc1ccc(N2CCCCC2)cc1` it is over 39.5 µg/mL.
The figure for `Cc1ccc(C(=O)Nc2ccc(C(=O)N3CCCCC3C)cc2)cc1` (stereo not drawn) is 5.2 µg/mL (≈ 15.5 µM); for `Br.Fc1cc(Cl)ccc1NC1=NCCCCC1` it is over 48.2 µg/mL; for `COCCNC(=O)/C(C#N)=C/c1ccc(O)c([N+](=O)[O-])c1` it is over 43.7 µg/mL.
`Cc1cc(C(=O)N2CC(C)CC(C)C2)c(C)o1` (stereo not drawn) came in with a kinetic solubility of 30.1 µg/mL (≈ 128 µM).
As for `O=C(Cc1ccccc1Cl)N1CCN(c2ccccn2)CC1`, the solubility (kinetic) is over 47.4 µg/mL.
The figure for `COc1ccc(C(=O)N2CC3(C)C4CCC3(C)C2(C#N)C4)cc1OC` (stereo not drawn) is 45 µg/mL (≈ 132 µM); for `COc1cccc(C(=O)NC2CCCc3ccccc32)c1OC` (stereo not drawn) it is 31.6 µg/mL (≈ 101 µM).
In turn, `O=C(NCCOc1ccc(Cl)cc1)c1ccc2ccccc2n1` registered a solubility (kinetic) of 4 µg/mL (≈ 12.2 µM).
The figure for `Cc1cccc(NC(=O)c2ccc(OCc3c(C)noc3C)cc2)c1C` is 3.4 µg/mL (≈ 9.7 µM); for `Cc1cc(C)c(C)c(S(=O)(=O)NCc2ccncc2)c1C` it is 25.8 µg/mL (≈ 84.8 µM).
As for `CSc1ccc(Cl)c(C(=O)Nc2ccc(C)cn2)c1`, the solubility (kinetic) was determined as 4.8 µg/mL (≈ 16.4 µM).
The figure for `CC1CCCC(C)N1/N=C/c1ccc(C#N)cc1` (stereo not drawn) is over 36.2 µg/mL; for `O=C(Nc1ccncc1)Nc1ccc(Cl)cc1` it is 9.8 µg/mL (≈ 39.6 µM).
The figure for `CN1CCC(N(C)C(=O)CNC(=O)c2ccc(C(C)(C)C)cc2)CC1` is 39.5 µg/mL (≈ 114 µM); for `CC(=O)c1ccc(N(CC(=O)Nc2cc(C)on2)S(=O)(=O)c2ccc(C)cc2)cc1` it is 6.2 µg/mL (≈ 14.5 µM).
In the case of `O=C(O)c1ccc(C2SCC(=O)N2Cc2ccco2)cc1` (stereo not drawn), the kinetic solubility was over 45.5 µg/mL.
As for `C/C(=C\c1ccc(Cl)cc1)C(=O)c1c(C)cc(C)[nH]c1=O`, the kinetic solubility was 42.8 µg/mL (≈ 142 µM).
Compound `O=C(NCc1cccnc1)Nc1ccc(Br)cc1Cl` registered a kinetic solubility of 19.2 µg/mL (≈ 56.4 µM).
For `COC(=O)C(CC(C)C)NC(=O)c1cccs1` (stereo not drawn), the kinetic solubility was over 38.3 µg/mL.
The figure for `O=C(Nc1ccc(NC(=O)c2cccs2)cc1)c1cccs1` is 0.9 µg/mL (≈ 2.74 µM).
The figure for `O=C(Nc1ccccc1Cl)Nc1ccccc1Cl` is under 0.3 µg/mL; for `O=C(Nc1ccccn1)c1ccc(-c2ccccc2)cc1` it is 0.9 µg/mL (≈ 3.28 µM); for `CN1C(C)(C)CC(NC(=O)c2ccco2)CC1(C)C` it is over 39.7 µg/mL.
As to `CCc1nc(N)nc(N)c1-c1ccc(Cl)cc1`, the kinetic solubility was over 37.3 µg/mL.
The figure for `O=C(COC(=O)c1ccco1)NC1CCCC1` is 28.1 µg/mL (≈ 118 µM); for `NC(=O)C1CCN(C(=O)c2ccc(Cl)c(S(=O)(=O)N3CCCCCC3)c2)CC1` it is over 64.2 µg/mL.
The figure for `COc1ccccc1NC(=O)Nc1ccc(CC#N)cc1` is 1.4 µg/mL (≈ 4.98 µM); for `CCN1/C(=C\C(=S)Nc2ccccc2)Sc2ccccc21` it is 20.7 µg/mL (≈ 66.2 µM).
As for `CN(c1ccccc1)c1nccc(=O)[nH]1`, the kinetic solubility is over 30.2 µg/mL.
The figure for `CC1CCc2cc(F)ccc2N1C(=O)CCl` (stereo not drawn) is over 36.3 µg/mL; for `Cl.N#C/C=C/N1CCN(Cc2ccc3c(c2)OCO3)CC1` it is over 46.2 µg/mL.
The figure for `CC(=O)NC(=O)COC(=O)c1ccc2ncsc2c1` is 27.5 µg/mL (≈ 98.8 µM); for `Cc1ccc(C2(c3noc(CN(C)CCO)n3)CCCC2)cc1` it is 39.5 µg/mL (≈ 125 µM); for `COc1ccccc1CNC(=O)c1ccc(NC(=O)CC2SC(N3CCCC3)=NC2=O)cc1` (stereo not drawn) it is 9.4 µg/mL (≈ 20.1 µM).
In turn, `Cc1ccc(NC(=O)c2cc(-c3ccc(F)cc3)on2)cc1C` registered a solubility (kinetic) of 0.4 µg/mL (≈ 1.29 µM).
The figure for `CCOC(=O)c1csc(COc2ccccc2Cl)n1` is 2.9 µg/mL (≈ 9.74 µM).
The figure for `Cc1[nH]c(=O)[nH]c(=O)c1S(=O)(=O)Nc1ccc(F)cc1F` is over 47.6 µg/mL; for `O=[N+]([O-])c1ccc(C(O)CN2CCOCC2)cc1` (stereo not drawn) it is over 37.8 µg/mL; for `COc1ccc(C(CC(=O)O)N2Cc3ccccc3C2=O)cc1OC` (stereo not drawn) it is over 51.2 µg/mL.
`COc1ccc(-c2cn(-c3ccccc3)c(=S)[nH]2)cc1OC` had a solubility (kinetic) of 22.6 µg/mL (≈ 72.3 µM).
The figure for `O=S(=O)(c1ccc(S(=O)(=O)N2CCCC2)cc1)N1CCCCC1` is under 0.4 µg/mL.
The figure for `CC(NC(=O)C(=S)N1CCN(C)CC1)c1ccccc1` (stereo not drawn) is over 43.7 µg/mL; for `O=C(COC(=O)c1cccc(O)c1)Nc1ccc(OC(F)F)cc1` it is 46.2 µg/mL (≈ 137 µM).
The figure for `Cc1nnc(SC(C)C(=O)NCC2CCCO2)s1` (stereo not drawn) is over 43.1 µg/mL.
With `COC(=O)c1ccc(COc2ccc(NC(C)=O)cc2)o1`, the kinetic solubility was over 43.4 µg/mL.
The figure for `Cc1ccc(C(=O)NC2CCN(C(=O)Nc3ccc(F)cc3)CC2)cc1` is 0.6 µg/mL (≈ 1.69 µM).
For the compound `O=C(NCCCN1CCOCC1)C(=O)NCc1ccc(Cl)cc1`, the kinetic solubility is over 51 µg/mL.
Regarding `Cc1c(C(=O)OCC(=O)NC(=O)NC2CCCCC2)cccc1[N+](=O)[O-]`, the solubility (kinetic) turned out to be 2.3 µg/mL (≈ 6.33 µM).

The kinetic solubility is the concentration staying in solution when a stock, usually in DMSO, is diluted into the medium.

The values are drawn from PubChem BioAssay AID1996.
